The record followed here is the NIST ThermoML archive (doi:10.1016/j.jct.2016.10.042).

For series [1] the following is noted: 101 kPa, Liquid, Pycnometric method.
Series [2] is described as follows: xn = mol fraction of the nth substance listed. Particulars: 101 kPa, Liquid, Pycnometric method, x1 = 1.

A word on the mass density: it is mass per unit of volume.

± gives the expanded uncertainty stated by the source.

With `C=CC(=O)OC(C)(C)C` [tert-butyl acrylate], the mass density in series [1] (293.15 K) was found to be 884.13 ± 1 kg/m3; in series [1] (298.15 K), 879.66 ± 1 kg/m3; in series [1] (303.15 K) it was 875.2 ± 1 kg/m3; in series [1] (308.15 K), 870.74 ± 1 kg/m3; in series [1] (313.15 K), 866.28 ± 1 kg/m3; in series [1] (318.15 K) it was 861.82 ± 1 kg/m3.

In the case of `C1CCOC1` [tetrahydrofuran], the mass density in series [1] (293.15 K) is recorded as 887.01 ± 1 kg/m3; in series [1] (298.15 K), 882.05 ± 1 kg/m3; in series [1] (303.15 K) it was 877.1 ± 1 kg/m3; in series [1] (308.15 K), 872.14 ± 1 kg/m3; in series [1] (313.15 K) it was 867.19 ± 1 kg/m3; in series [1] (318.15 K), 862.23 ± 1 kg/m3.

Turning to `C1CCOC1` [tetrahydrofuran] + C=CC(=O)OC, the mass density in series [2] (293.15 K) is 887.01 ± 1 kg/m3; in series [2] (298.15 K), 882.05 ± 1 kg/m3; in series [2] (303.15 K), 877.1 ± 1 kg/m3; in series [2] (308.15 K), 872.14 ± 1 kg/m3; in series [2] (313.15 K), 867.19 ± 1 kg/m3; in series [2] (318.15 K), 862.23 ± 1 kg/m3.

Consider `C1CCOC1` [tetrahydrofuran] + C=CC(=O)OC(C)(C)C, for which the mass density in series [2] (293.15 K) was 887.01 ± 1 kg/m3; in series [2] (298.15 K), 882.05 ± 1 kg/m3; in series [2] (303.15 K), 877.1 ± 1 kg/m3; in series [2] (308.15 K), 872.14 ± 1 kg/m3; in series [2] (313.15 K), 867.19 ± 1 kg/m3; in series [2] (318.15 K), 862.23 ± 1 kg/m3.

Take `C1CCOC1` [tetrahydrofuran] + C=CC(=O)OCC: the mass density in series [2] (293.15 K) is 887.01 ± 1 kg/m3; in series [2] (298.15 K), 882.05 ± 1 kg/m3; in series [2] (303.15 K) it was 877.1 ± 1 kg/m3; in series [2] (308.15 K) it was 872.14 ± 1 kg/m3; in series [2] (313.15 K) it was 867.19 ± 1 kg/m3; in series [2] (318.15 K), 862.23 ± 1 kg/m3.

Consider `C1CCOC1` [tetrahydrofuran] + C=CC(=O)OCCCC, for which the mass density in series [2] (293.15 K) is on record as 887.01 ± 1 kg/m3; in series [2] (298.15 K), 882.05 ± 1 kg/m3; in series [2] (303.15 K) it was 877.1 ± 1 kg/m3; in series [2] (308.15 K), 872.14 ± 1 kg/m3; in series [2] (313.15 K), 867.19 ± 1 kg/m3; in series [2] (318.15 K), 862.23 ± 1 kg/m3.
